In this assay the target is AAK1 (adaptor-associated kinase 1) (Homo sapiens, UniProt Q2M2I8). Put plainly: ADP-Glo kinase assay with recombinant AAK1 and AP2M1 peptide. In kind it is biochemical. For orientation: In ADP-Glo the light output rises with the ADP produced.

In general, IC50 refers to the concentration that gives 50% inhibition.

AAK1 (adaptor-associated kinase 1), sequence (Q2M2I8 46-315 limits assumed): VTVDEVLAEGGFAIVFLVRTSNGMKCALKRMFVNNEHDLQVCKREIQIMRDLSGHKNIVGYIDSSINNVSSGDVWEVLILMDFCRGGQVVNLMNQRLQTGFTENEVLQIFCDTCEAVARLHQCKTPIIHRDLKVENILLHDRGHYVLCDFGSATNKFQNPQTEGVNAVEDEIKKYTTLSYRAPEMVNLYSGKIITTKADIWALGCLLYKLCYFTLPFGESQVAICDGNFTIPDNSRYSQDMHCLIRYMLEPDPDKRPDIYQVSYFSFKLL

For `COC(=O)C1(O)C[C@H]2O[C@]1(C)n1c3ccccc3c3c4c(c5c6ccccc6n2c5c31)C(=O)NC4` (stereo partly shown) [compound 1, K252a], the IC50 is < 0.01 µM.

These data come from paper PMC3368601 (Chemistry & biology, 2011).
